Laboratory results: patent US10703760B2, “Morphic forms of marizomib and uses thereof” (Celgene International II Sàrl, priority 2016, dated 2020)

Tests used:
Type in all cases: physicochemical
[1] = Polymorphism screening of Sample 1 (solubility observations, maturation, cooling, XRPD); design: key to Obs. at r.t. 10 vol. / Obs. at r.t. 20 vol. / Obs. at r.t. 30 vol. / Obs. at r.t. 40 vol. / Obs. at r.t. 50 vol. / Maturation 50° C./r.t. / Cooling at 5° C.: ✓ = Soluble; X = Insoluble,; conditions: for Maturation 50° C./r.t.: heat-cool cycles 24 h; for Cooling at 5° C.: held at 5° C. for 48 h
Method: Polymorphism studies on marizomib were carried out in different solvents and conditions to understand the polymorphic behavior of the free form. Marizomib (Sample 1, 30 mg) was dissolved or suspended in the given solvent at room temperature. Solvent was added until the material dissolved or up to a maximum of 50 volumes. The suspensions were matured between 50° C. and room temperature heat-cool cycles (8 h per cycle) for 24 h. The solutions were cooled to and held at 5° C. for 48 h. If no solid was obtained then the solutions were allowed to evaporate slowly at room temperature. All the recovered solids were analyzed by XRPD.

[2] = Hydrolysis of marizomib / chemical purity by HPLC after solvent exposure; conditions: starting material 98.2%
Method: Purity analysis was performed on an Agilent HP1100 series system equipped with a diode array detector and using ChemStation software vB.04.03 using the method set forth in Table-5.
30 mg of Sample 1 was suspended in the given solvent shown in Table 6 (1 ml) at room temperature. The samples were matured between 50° C. and room temperature heat-cool cycles (8 h per cycle) for 96 h. The solids were filtered, air dried and analyzed by XRPD.

[3] = Variable temperature XRPD
Method: Samples run under non-ambient conditions were mounted on a silicon wafer with heat-conducting compound. The sample was then heated to the appropriate temperature at 20° C./min and subsequently held isothermally for 1 minute before data collection was initiated.

[4] = Thermogravimetric analysis (TGA); conditions: heated at 10° C./min under nitrogen
Method: TGA data were collected on a TA Instruments Q500 TGA, equipped with a 16-position auto-sampler. The instrument was temperature calibrated using certified Alumel™ and Nickel. Typically 5-10 mg of each sample was loaded onto a pre-tared aluminum DSC pan and heated at 10° C./min from ambient temperature to 350° C. A nitrogen purge at 60 ml/min was maintained over the sample.
TG analyses were performed using a TA Instruments Q5000 IR thermogravimetric analyzer. Temperature calibration was performed using nickel and Alumel™. Each sample was placed in an aluminum pan. The sample was hermetically sealed, the lid pierced, then inserted into the TG furnace. The furnace was heated under nitrogen.

C[C@@]12OC(=O)[C@]1([C@@H](O)[C@@H]1C=CCCC1)NC(=O)[C@@H]2CCCl [Sample 1, marizomib]
Obs. at r.t. 10 vol. ([1]; 2-Propanol): X | Obs. at r.t. 20 vol. ([1]; 2-Propanol): X | Obs. at r.t. 30 vol. ([1]; 2-Propanol): X | Obs. at r.t. 40 vol. ([1]; 2-Propanol): X | Obs. at r.t. 50 vol. ([1]; 2-Propanol): X | Maturation 50° C./r.t. ([1]; 2-Propanol): X | Morphic form obtained from polymorphism screen (XRPD) ([1]; 20 solvents, maturation, cooling, evaporation): Form I was the only form obtained | Obs. at r.t. 10 vol. ([1]; Acetone): X | Obs. at r.t. 20 vol. ([1]; Acetone): X | Obs. at r.t. 30 vol. ([1]; Acetone): X | Obs. at r.t. 40 vol. ([1]; Acetone): X | Obs. at r.t. 50 vol. ([1]; Acetone): X | Maturation 50° C./r.t. ([1]; Acetone): ✓ | Cooling at 5° C. ([1]; Acetone): ✓ | Obs. at r.t. 10 vol. ([1]; Acetonitrile): X | Obs. at r.t. 20 vol. ([1]; Acetonitrile): X | Obs. at r.t. 30 vol. ([1]; Acetonitrile): X | Obs. at r.t. 40 vol. ([1]; Acetonitrile): X | Obs. at r.t. 50 vol. ([1]; Acetonitrile): X | Maturation 50° C./r.t. ([1]; Acetonitrile): X | Obs. at r.t. 10 vol. ([1]; Anisole): X | Obs. at r.t. 20 vol. ([1]; Anisole): X | Obs. at r.t. 30 vol. ([1]; Anisole): X | Obs. at r.t. 40 vol. ([1]; Anisole): X | Obs. at r.t. 50 vol. ([1]; Anisole): X | Maturation 50° C./r.t. ([1]; Anisole): X | Obs. at r.t. 10 vol. ([1]; Chloroform): X | Obs. at r.t. 20 vol. ([1]; Chloroform): ✓ | Cooling at 5° C. ([1]; Chloroform): ✓ | Obs. at r.t. 10 vol. ([1]; Cumene): X | Obs. at r.t. 20 vol. ([1]; Cumene): X | Obs. at r.t. 30 vol. ([1]; Cumene): X | Obs. at r.t. 40 vol. ([1]; Cumene): X | Obs. at r.t. 50 vol. ([1]; Cumene): X | Maturation 50° C./r.t. ([1]; Cumene): X | Obs. at r.t. 10 vol. ([1]; DMA): X | Obs. at r.t. 20 vol. ([1]; DMA): ✓ | Cooling at 5° C. ([1]; DMA): ✓ | Obs. at r.t. 10 vol. ([1]; DMF): X | Obs. at r.t. 20 vol. ([1]; DMF): ✓ | Cooling at 5° C. ([1]; DMF): ✓ | Obs. at r.t. 10 vol. ([1]; Dichloromethane): X | Obs. at r.t. 20 vol. ([1]; Dichloromethane): X | Obs. at r.t. 30 vol. ([1]; Dichloromethane): X | Obs. at r.t. 40 vol. ([1]; Dichloromethane): X | Obs. at r.t. 50 vol. ([1]; Dichloromethane): X | Maturation 50° C./r.t. ([1]; Dichloromethane): X | Obs. at r.t. 10 vol. ([1]; Dimethyl sulfoxide): X | Obs. at r.t. 20 vol. ([1]; Dimethyl sulfoxide): X | Obs. at r.t. 30 vol. ([1]; Dimethyl sulfoxide): X | Obs. at r.t. 40 vol. ([1]; Dimethyl sulfoxide): X | Obs. at r.t. 50 vol. ([1]; Dimethyl sulfoxide): X | Maturation 50° C./r.t. ([1]; Dimethyl sulfoxide): ✓ | Cooling at 5° C. ([1]; Dimethyl sulfoxide): ✓ | Obs. at r.t. 10 vol. ([1]; Ethanol): X | Obs. at r.t. 20 vol. ([1]; Ethanol): X | Obs. at r.t. 30 vol. ([1]; Ethanol): X | Obs. at r.t. 40 vol. ([1]; Ethanol): X | Obs. at r.t. 50 vol. ([1]; Ethanol): X | Maturation 50° C./r.t. ([1]; Ethanol): X | Obs. at r.t. 10 vol. ([1]; Ethyl acetate): X | Obs. at r.t. 20 vol. ([1]; Ethyl acetate): X | Obs. at r.t. 30 vol. ([1]; Ethyl acetate): X | Obs. at r.t. 40 vol. ([1]; Ethyl acetate): X | Obs. at r.t. 50 vol. ([1]; Ethyl acetate): X | Maturation 50° C./r.t. ([1]; Ethyl acetate): ✓ | Cooling at 5° C. ([1]; Ethyl acetate): ✓ | Obs. at r.t. 10 vol. ([1]; Isopropyl acetate): X | Obs. at r.t. 20 vol. ([1]; Isopropyl acetate): X | Obs. at r.t. 30 vol. ([1]; Isopropyl acetate): X | Obs. at r.t. 40 vol. ([1]; Isopropyl acetate): X | Obs. at r.t. 50 vol. ([1]; Isopropyl acetate): X | Maturation 50° C./r.t. ([1]; Isopropyl acetate): X | Obs. at r.t. 10 vol. ([1]; MEK): X | Obs. at r.t. 20 vol. ([1]; MEK): X | Obs. at r.t. 30 vol. ([1]; MEK): X | Obs. at r.t. 40 vol. ([1]; MEK): X | Obs. at r.t. 50 vol. ([1]; MEK): X | Maturation 50° C./r.t. ([1]; MEK): ✓ | Cooling at 5° C. ([1]; MEK): ✓ | Obs. at r.t. 10 vol. ([1]; MIBK): X | Obs. at r.t. 20 vol. ([1]; MIBK): X | Obs. at r.t. 30 vol. ([1]; MIBK): X | Obs. at r.t. 40 vol. ([1]; MIBK): X | Obs. at r.t. 50 vol. ([1]; MIBK): X | Maturation 50° C./r.t. ([1]; MIBK): X | Obs. at r.t. 10 vol. ([1]; Nitromethane): X | Obs. at r.t. 20 vol. ([1]; Nitromethane): X | Obs. at r.t. 30 vol. ([1]; Nitromethane): X | Obs. at r.t. 40 vol. ([1]; Nitromethane): X | Obs. at r.t. 50 vol. ([1]; Nitromethane): X | Maturation 50° C./r.t. ([1]; Nitromethane): X | Obs. at r.t. 10 vol. ([1]; Tetrahydrofuran): X | Obs. at r.t. 20 vol. ([1]; Tetrahydrofuran): ✓ | Cooling at 5° C. ([1]; Tetrahydrofuran): ✓ | Obs. at r.t. 10 vol. ([1]; Toluene): X | Obs. at r.t. 20 vol. ([1]; Toluene): X | Obs. at r.t. 30 vol. ([1]; Toluene): X | Obs. at r.t. 40 vol. ([1]; Toluene): X | Obs. at r.t. 50 vol. ([1]; Toluene): X | Maturation 50° C./r.t. ([1]; Toluene): X | Obs. at r.t. 10 vol. ([1]; n-Heptane): X | Obs. at r.t. 20 vol. ([1]; n-Heptane): X | Obs. at r.t. 30 vol. ([1]; n-Heptane): X | Obs. at r.t. 40 vol. ([1]; n-Heptane): X | Obs. at r.t. 50 vol. ([1]; n-Heptane): X | Maturation 50° C./r.t. ([1]; n-Heptane): X | Obs. at r.t. 10 vol. ([1]; tert-Butylmethyl ether): X | Obs. at r.t. 20 vol. ([1]; tert-Butylmethyl ether): X | Obs. at r.t. 30 vol. ([1]; tert-Butylmethyl ether): X | Obs. at r.t. 40 vol. ([1]; tert-Butylmethyl ether): X | Obs. at r.t. 50 vol. ([1]; tert-Butylmethyl ether): X | Maturation 50° C./r.t. ([1]; tert-Butylmethyl ether): X | Chemical purity (HPLC) of solid isolated from polymorphism screen ([2]; isolated from EtOAc experiment): 96.8% | Chemical purity (HPLC) of solid isolated from polymorphism screen ([2]; isolated from EtOH experiment): 97.4% | Morphic form on heating (variable temperature XRPD) ([3]; 25° C. to 160° C.): remained as Form I | Discoloration (white to yellow) temperature; melting and/or degradation after about five minutes hold ([3]; during variable temperature XRPD): about 160 °C

C[C@@]12OC(=O)[C@]1([C@@H](O)[C@@H]1C=CCCC1)NC(=O)[C@@H]2CCCl [Sample 3, marizomib]
TGA: no weight loss observed until (weight loss can be due to sample degradation) [4]: about 175 °C
